Here are results for six molecules from patent publication US20120259007A1, “ANTICOAGULANT COMPOUNDS AND THEIR USE” (HAOMA MEDICA LIMITED, priority 2009, published 2012).

Each structure is given as a SMILES string.

One experiment concerns Mice. In words: Observed anticoagulant activity (bleeding) in treated mice. Conditions: single injection 15 μg/mouse/day intraperitoneally in 10% ethanol in saline. It counts as in vivo. The method, then:
Mice were treated with one compound of the present invention (4E)-6-(1,4-dihydro-2-methyl-1,4-dioxonaphthalen-3-yl)-4-methylhex-4-enoic acid (VIII) [also called NaQuinate herein] in the form of a single injection (15 μg/mouse/day) administered in 10% ethanol in saline injections intraperitoneally. Control mice received the carrier but not the NaQuinate active component.
On to `CC1=C(C/C=C(\C)CCC(=O)O)C(=O)c2ccccc2C1=O` [NaQuinate (VIII), (4E)-6-(1,4-dihydro-2-methyl-1,4-dioxonaphthalen-3-yl)-4-methylhex-4-enoic acid], for which the “bleeding compared with mice not treated (anticoagulant effect)” value was “bleed out much more profusely”.

Another experiment concerns the target T1, recombinant human γ-carboxylase (Homo sapiens, UniProt P38435).
T1 construct: made in house; host or cells: Trichoplusia ni High Five cells (microsomes)
T1 sequence (P38435 1-758): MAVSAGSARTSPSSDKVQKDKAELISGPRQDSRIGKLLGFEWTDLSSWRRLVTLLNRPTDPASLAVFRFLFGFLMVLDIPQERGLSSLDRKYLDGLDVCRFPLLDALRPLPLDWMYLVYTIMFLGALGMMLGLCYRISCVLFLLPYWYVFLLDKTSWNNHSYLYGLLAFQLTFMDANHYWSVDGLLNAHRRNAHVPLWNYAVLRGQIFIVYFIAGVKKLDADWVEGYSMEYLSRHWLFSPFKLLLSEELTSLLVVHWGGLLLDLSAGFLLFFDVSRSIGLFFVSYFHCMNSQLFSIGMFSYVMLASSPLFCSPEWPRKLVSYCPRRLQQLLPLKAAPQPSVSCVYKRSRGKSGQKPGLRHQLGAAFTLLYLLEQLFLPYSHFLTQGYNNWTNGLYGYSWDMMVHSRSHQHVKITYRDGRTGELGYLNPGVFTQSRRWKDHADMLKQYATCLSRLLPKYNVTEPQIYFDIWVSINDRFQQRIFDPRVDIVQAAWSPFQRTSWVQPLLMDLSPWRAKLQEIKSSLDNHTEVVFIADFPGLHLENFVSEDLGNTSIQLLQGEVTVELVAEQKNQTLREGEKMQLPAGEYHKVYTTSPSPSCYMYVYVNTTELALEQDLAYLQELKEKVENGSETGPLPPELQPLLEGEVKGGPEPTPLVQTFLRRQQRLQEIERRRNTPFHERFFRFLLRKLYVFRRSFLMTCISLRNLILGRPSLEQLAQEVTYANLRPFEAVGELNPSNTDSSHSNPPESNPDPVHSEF
Put plainly: Inhibition of recombinant human gamma-carboxylase (14CO2 incorporation, microsomes from High Five cells). It counts as biochemical. Conditions: in the presence of 220 μM vitamin K1 hydroquinone; compounds reduced to hydroquinone forms; n=1; read-out: IC50 against 220 μM vitamin K1. How it is done: The compounds to be tested were reduced to their hydroquinone forms by the addition of 0.2 M DTT to a solution of the compounds in DMSO (giving a final v/v ratio of 1:3 DTT:DMSO) and overnight incubation in a water bath (37° C.).
In this assay a different microsomal preparation was used than the one described above. This microsomal preparation consists of microsomes prepared from Trichoplusia ni High Five cells that had had the cDNA for the human γ-carboxylase incorporated into their DNA. These microsomes were taken from stores that had been prepared as described by Houben, R. J., D. Jin, et al. (1999). “Osteocalcin binds tightly to the gamma-glutamylcarboxylase at a site distinct from that of the other known vitamin K-dependent proteins.” Biochem J 341 (Pt 2): 265-9.
Standard reaction mixtures contained 5 μl of microsomal preparation, 5 μl of 500 μM decarboxylated osteocalcin (d-OC) (except for the negative control tube), 25 μl of saturated ammonium sulphate solution, 5 μl of 5% PC/CHAPS. In addition to this, 1:3 (v/v) DMSO: 0.2 M DTT was added to the tubes (to take into account the fact that the compounds were dissolved in 1:3 DMSO: 0.2 M DTT) to give a total volume of 40 μl DMSO: 0.2 M DTT per tube. A solution of Buffer D was added to give all final tubes a uniform volume of 125 μl. The experiment was initiated by the addition of 10 μl of a 1:1 (v/v) mixture of vitamin K hydroquinone (final concentration of 220 μM) and NaH^14CO3 (final radioactivity of 5 μCi) to each tube, followed by a range of concentrations of the compounds.
The term IC50 denotes the concentration needed to halve the response being measured. Take `CC1=C(C/C=C(\C)C(=O)O)C(=O)c2ccccc2C1=O` [KCAT-5C (XIV), (2E)-4-(1,4-dihydro-2-methyl-1,4-dioxonaphthalen-3-yl)-2-methylbut-2-enoic acid]: the IC50 came to 340 µM.
On the same count and under the same terms, as for `COC(=O)C(C)CCC1=C(C)C(=O)c2ccccc2C1=O` (stereo not shown) [KCAT-5C-Me (XIX)], the figure is 514 µM; as for `CC1=C(C/C=C(\C)CCC(=O)O)C(=O)c2ccccc2C1=O` [NaQuinate (VIII), (4E)-6-(1,4-dihydro-2-methyl-1,4-dioxonaphthalen-3-yl)-4-methylhex-4-enoic acid], 152 µM; as for `COC(=O)CCC(C)=CCC1=C(C)C(=O)c2ccccc2C1=O` [NaQuinate-Me (VII)], 358 µM.
On the same count and under the same terms, as for `COC(=O)CC/C(C)=C/CC1=C(C)C(=O)C(OC)=C(OC)C1=O` [QCAT-Me (XVIII)], the figure is 534 µM; as for `CC1=CC(=O)c2ccccc2C1=O` [Vitamin K3 (III), menadione, reference compound], 460 µM.
